The text below walks through data of patent publication US20230159510A1, “NOVEL PRMT5 INHIBITORS” (AMGEN INC., priority 2020, published 2023).

Like-named read-outs stand apart in the source and are kept apart here. Some results are limits rather than exact numbers.

For test [1], the system named is HCT116 MTAP null cells. Put plainly: HCT116 proliferation assay, MTAP null cells (CellTiter-Glo, 6 days). The test is classed as cell-based. Conditions: 144 h, read-out: Protif_ HCT116-MTAP null IC50. The essentials:
(§1)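 RPMI 1640/10% FBS; overnight attachment at 37° C, 5% CO2; 8–9-pt 1:3 titration, top 1 or 10 µM; DMSO ctrl; luminescence readout.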
For orientation: Cellular ATP, detected with luciferase, serves as a proxy for viable cell number.

For test [2], the target named is PRMT5/MEP50 (Homo sapiens, UniProt O14744). Put plainly: MTase-Glo methyl transferase assay, Method A (Histone H4 peptide, 1 µM MTA, 24 h pre-incubation). The format is biochemical. Set-up: made in house. Conditions: read-out: PRMT5 MTase Glo Ki (nM, Meth. A). The essentials: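 PRMT5/MEP50 (10 nM) pre-incubated 24 h with compound, 5 µM SAM and 1 µM MTA, then reaction started with 1 µM Histone H4 (1-21) peptide and run 2 h at room temperature in Tris pH 8.0 buffer. SAH formed detected by MTase-Glo luminescence; IC50 and KI from dose-response curves.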

Test [3] relates to HCT116 WT cells. In words: HCT116 proliferation assay, WT cells (CellTiter-Glo, 6 days). The test is classed as cell-based. As to conditions: Homo sapiens, HCT-116, 144 h, read-out: Prolif_HCT116-WT IC50. The essentials: as §1

PRMT5/MEP50, sequence (O14744 whole entry): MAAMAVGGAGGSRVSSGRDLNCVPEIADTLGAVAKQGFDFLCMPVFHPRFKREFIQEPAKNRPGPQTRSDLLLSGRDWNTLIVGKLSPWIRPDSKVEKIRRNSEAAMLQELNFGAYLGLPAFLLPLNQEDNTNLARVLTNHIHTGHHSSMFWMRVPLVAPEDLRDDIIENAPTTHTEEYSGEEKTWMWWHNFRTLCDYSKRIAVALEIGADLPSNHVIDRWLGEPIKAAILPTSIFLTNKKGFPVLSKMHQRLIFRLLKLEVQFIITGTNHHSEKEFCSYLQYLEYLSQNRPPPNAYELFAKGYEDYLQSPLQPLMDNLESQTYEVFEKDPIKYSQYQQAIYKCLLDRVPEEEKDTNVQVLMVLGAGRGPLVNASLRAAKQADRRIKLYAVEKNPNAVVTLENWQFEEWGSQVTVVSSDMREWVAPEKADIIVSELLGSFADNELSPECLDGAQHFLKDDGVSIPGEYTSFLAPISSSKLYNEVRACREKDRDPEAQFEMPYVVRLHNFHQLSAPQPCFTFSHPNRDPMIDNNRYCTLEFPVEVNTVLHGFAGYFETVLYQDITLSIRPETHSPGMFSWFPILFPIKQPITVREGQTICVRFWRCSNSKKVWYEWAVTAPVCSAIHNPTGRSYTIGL
PRMT5/MEP50, sequence (Q9BQA1 whole entry partner): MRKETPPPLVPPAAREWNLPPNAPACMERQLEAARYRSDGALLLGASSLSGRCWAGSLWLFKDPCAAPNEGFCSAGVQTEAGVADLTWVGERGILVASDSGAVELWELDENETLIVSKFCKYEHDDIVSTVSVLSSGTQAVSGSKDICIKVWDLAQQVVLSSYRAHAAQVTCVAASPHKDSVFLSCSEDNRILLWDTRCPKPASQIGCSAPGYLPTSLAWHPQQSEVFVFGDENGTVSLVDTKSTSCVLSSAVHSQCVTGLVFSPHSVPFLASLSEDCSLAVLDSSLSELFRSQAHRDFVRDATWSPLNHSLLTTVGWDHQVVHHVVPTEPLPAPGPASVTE

What is called IC50 is the midpoint of a concentration-inhibition curve. The term Ki denotes a measure of affinity in units of concentration, obtained from inhibition or displacement. Turning to `Cc1cc2cc(C(=O)N(Cc3ncc(C(F)(F)F)cc3F)CC(C)C)ccc2nc1N` [Example 308, 2-amino-N-((3-fluoro-5-(trifluoromethyl)-2-pyridinyl)methyl)-3-methyl-N-(2-methylpropyl)-6-quinolinecarboxamide], the IC50 was 620 nM in test [1] (HCT116-MTAP null) and > 10000 nM in test [3]. Also, the Ki in test [2] was 2.34 nM.
`Cc1cc2cc(C(=O)N(Cc3ccc(C(F)(F)F)cn3)[C@H](C)C3CC3)ccc2nc1N` [Example 309, 2-amino-N-((1R)-1-cyclopropylethyl)-3-methyl-N-((5-(trifluoromethyl)-2-pyridinyl)methyl)-6-quinolinecarboxamide]: the IC50 in test [1] (HCT116-MTAP null) stood at 644 nM; in test [3], 7440 nM. Moreover, the Ki in test [2] worked out at 2.35 nM.
For the molecule `Cc1cc2cc(C(=O)N(Cc3ccc(C(F)(F)F)cn3)Cc3ncccc3F)c(F)cc2nc1N` [Example 310, 2-amino-7-fluoro-N-((3-fluoro-2-pyridinyl)methyl)-3-methyl-N-((5-(trifluoromethyl)-2-pyridinyl)methyl)-6-quinolinecarboxamide], the IC50 in test [1] (HCT116-MTAP null) was 67 nM; in test [3] it was 1600 nM. The Ki in test [2] was found to be 0.29 nM.
Consider `Cc1cc2cc(C(=O)N(Cc3ccc(C(F)(F)F)cn3)CC3CC3)c(F)cc2nc1N` [Example 311, 2-amino-N-(cyclopropylmethyl)-7-fluoro-3-methyl-N-((5-(trifluoromethyl)-2-pyridinyl)methyl)-6-quinolinecarboxamide], for which the IC50 in test [1] (HCT116-MTAP null) stood at 163 nM; in test [3], 2840 nM. In addition, the Ki in test [2] is 0.21 nM.
For `Cc1cc2cc(C(=O)N(Cc3ccc(C(F)(F)F)cn3)Cc3ncccc3F)ncc2nc1N` [Example 312, 2-amino-N-((3-fluoro-2-pyridinyl)methyl)-3-methyl-N-((5-(trifluoromethyl)-2-pyridinyl)methyl)-1,7-naphthyridine-6-carboxamide] the same measures were 806 nM, > 10000 nM and 0.36 nM.
`Cc1cc2cc(C(=O)N(Cc3ccc(C(F)(F)F)cn3)CC(C)C)ncc2nc1N` [Example 313, 2-amino-3-methyl-N-(2-methylpropyl)-N-((5-(trifluoromethyl)-2-pyridinyl)methyl)-1,7-naphthyridine-6-carboxamide]: the IC50 in test [1] was 902 nM; in test [3], > 10000 nM. Also, the inhibitory constant (Ki) in test [2] turned out to be 0.98 nM.
With `Cc1cc2cc(C(=O)N(Cc3ccc(C(F)(F)F)cn3)CC(C)C)c(F)cc2nc1N` [Example 314, 2-amino-7-fluoro-3-methyl-N-(2-methylpropyl)-N-((5-(trifluoromethyl)-2-pyridinyl)methyl)-6-quinolinecarboxamide], the results for the IC50 in test [1] and in test [3] were 218 nM and 5130 nM, respectively. Besides, the Ki in test [2] came to 0.35 nM.
Consider `Cc1cc2cc(C(=O)N(Cc3ccc(C(F)(F)F)cn3)Cc3cnccn3)c(F)cc2nc1N` [Example 315, 2-amino-7-fluoro-3-methyl-N-(2-pyrazinylmethyl)-N-((5-(trifluoromethyl)-2-pyridinyl)methyl)-6-quinolinecarboxamide], for which the IC50 in test [1] (HCT116-MTAP null) was determined as 181 nM; in test [3], 4340 nM. The Ki in test [2] was determined as 0.25 nM.
For `Cc1cc(CN(Cc2ccc(C(F)(F)F)cn2)C(=O)c2cc3cc(C)c(N)nc3cc2F)no1` [Example 316, 2-amino-7-fluoro-3-methyl-N-((5-methyl-1,2-oxazol-3-yl)methyl)-N-((5-(trifluoromethyl)-2-pyridinyl)methyl)-6-quinolinecarboxamide] the same measures were 534 nM, 10400 nM and 1.03 nM.
For the molecule `Nc1nc2ccc(C(=O)N(Cc3ccc(C(F)(F)F)cn3)Cc3ncccn3)cc2cc1Br` [Example 317, 2-amino-3-bromo-N-(2-pyrimidinylmethyl)-N-((5-(trifluoromethyl)-2-pyridinyl)methyl)-6-quinolinecarboxamide], the IC50 was 612 nM in test [1] (HCT116-MTAP null) and > 10000 nM in test [3]. For the same molecule, in test [2], the Ki was determined as 0.56 nM.
In the case of `CC(C)CN(Cc1ccc(C(F)(F)F)cn1)C(=O)c1ccc2nc(N)c(Br)cc2c1` [Example 318, 2-amino-3-bromo-N-(2-methylpropyl)-N-((5-(trifluoromethyl)-2-pyridinyl)methyl)-6-quinolinecarboxamide], the IC50 is 952 nM in test [1] (HCT116-MTAP null) and > 10000 nM in test [3]. Besides, in test [2], the Ki turned out to be 1.91 nM.
As for `Cc1cc2cc(C(=O)N(Cc3ccc(C(F)(F)F)cn3)Cc3ncccc3F)ccc2nc1N` [Example 320, 2-amino-N-((3-fluoro-2-pyridinyl)methyl)-3-methyl-N-((5-(trifluoromethyl)-2-pyridinyl)methyl)-6-quinolinecarboxamide], the results for the IC50 in test [1] and in test [3] were 79 nM and 3480 nM, respectively. In addition, the Ki in test [2] was found to be 0.28 nM.
Take `Nc1nc2ncc(C(=O)N(Cc3ccc(C(F)(F)F)cn3)Cc3ncccc3F)cc2cc1Br` [Example 321, 7-amino-6-bromo-N-((3-fluoro-2-pyridinyl)methyl)-N-((5-(trifluoromethyl)-2-pyridinyl)methyl)-1,8-naphthyridine-3-carboxamide]: the IC50 in test [1] (HCT116-MTAP null) is 288 nM; in test [3], > 10000 nM. Further, the Ki in test [2] is 0.15 nM.
`Cc1cc2cc(C(=O)N(Cc3ccc(C(F)(F)F)nc3)Cc3ncccc3F)ccc2nc1N` [Example 322, 2-amino-N-((3-fluoro-2-pyridinyl)methyl)-3-methyl-N-((6-(trifluoromethyl)-3-pyridinyl)methyl)-6-quinolinecarboxamide]: the IC50 in test [1] (HCT116-MTAP null) was 385 nM; in test [3], > 10000 nM. The Ki in test [2] is 1.09 nM.
On to `Cc1cc2cc(C(=O)N(Cc3ccc(C(F)(F)F)cn3)[C@@H]3CCCc4ccncc43)ccc2nc1N` [Example 323, 2-amino-3-methyl-N-((8R)-5,6,7,8-tetrahydro-8-isoquinolinyl)-N-((5-(trifluoromethyl)-2-pyridinyl)methyl)-6-quinolinecarboxamide], for which the IC50 in test [1] (HCT116-MTAP null) stood at 159 nM; in test [3] it was 5010 nM. For the same molecule, in test [2], the Ki amounted to 0.36 nM.
As for `Cc1cc2cc(C(=O)N(Cc3ccc(C(F)F)cn3)CC(C)C)ccc2nc1N` [Example 324, 2-amino-N-((5-(difluoromethyl)-2-pyridinyl)methyl)-3-methyl-N-(2-methylpropyl)-6-quinolinecarboxamide], the IC50 in test [1] (HCT116-MTAP null) is 849 nM; in test [3] it was > 10000 nM. Moreover, in test [2], the Ki was 2 nM.
For `Cc1cc2cc(C(=O)N(Cc3ccc(C(F)(F)F)cn3)CC3CC3)ccc2nc1N` [Example 325, 2-amino-N-(cyclopropylmethyl)-3-methyl-N-((5-(trifluoromethyl)-2-pyridinyl)methyl)-6-quinolinecarboxamide] the same measures were 679 nM, 6180 nM and 2.76 nM.
With `Cc1cc2cc(C(=O)N(Cc3ccc(C(F)F)cn3)Cc3ncccc3F)ccc2nc1N` [Example 326, 2-amino-N-((5-(difluoromethyl)-2-pyridinyl)methyl)-N-((3-fluoro-2-pyridinyl)methyl)-3-methyl-6-quinolinecarboxamide], the figures for the IC50 in test [1] (HCT116-MTAP null) and in test [3] were 125 nM and 4320 nM, respectively. Moreover, in test [2], the Ki came out at 0.16 nM.
Taken in the same sequence, the figures for `Cc1cc2cc(C(=O)N(Cc3ccc(C#N)cn3)Cc3ncccc3F)ccc2nc1N` [Example 327, 2-amino-N-((5-cyano-2-pyridinyl)methyl)-N-((3-fluoro-2-pyridinyl)methyl)-3-methyl-6-quinolinecarboxamide] were 304 nM, 8640 nM and 0.35 nM.
